Broadly, the IC50 is the point on the concentration scale where inhibition reaches its midpoint.

One experiment deals with MOLM-13. Nature of the experiment: Cell growth inhibition, 4-day proliferation assay, MOLM-13. The format is cell-based. The conditions noted are these: Homo sapiens, MOLM-13, WST-8 assay, Table 7; read-out: Cell growth inhibition (IC50 (nM)) MOLM-13. The protocol: (§1) The effect of representative Compounds of the Disclosure on cell viability was determined in a 4-day proliferation assay. Cells were maintained in the appropriate culture medium with 100/0 FBS at 37° C. and an atmosphere of 5% CO2. All the cell lines were used within three months of thawing fresh vials.
(§2) In general, cells were seeded in 96-well flat bottom (Corning COSTAR, Corning, N.Y., cat #3595) or white opaque cell culture plates (BD Falcon, cat #353296) at a density of 3,000-10,000 cells/well in 75 μl of culture medium. Compounds were serially diluted in the appropriate medium, and 75 μl of the diluted compounds were added to the appropriate wells of the cell plate. After the addition of compounds, the cells were incubated at 37° C. in an atmosphere of 5% CO2 for 4 days. Cell viability was determined using the CellTiter-Glo® Luminescent Cell Viability Assay Kit (Promega, Madison, Wis.) for leukemia cells and WST (2-(2-methoxy-4-nitrophenyl)-3-(4-nitrophenyl)-5-(2,4-disulfophenyl)-2H-tetrazolium, monosodium salt) Cell Counting-8 Kit (Dojindo Molecular Technologies, Inc., Rockville, Md.) for adherent cells according to the manufacturers' instructions.
(§3) For WST assay (adherent cells), WST-8 reagent was added to each well at a final concentration of 10% (v/v), and then the plates were incubated at 37° C. for 1-2 hours for color development. The absorbance was measured at 450 nm using a SPECTRAmax PLUS plate reader (Molecular Devices, Sunnyvale, Calif.). The readings were normalized to the DMSO-treated cells and the half maximal inhibitory concentration (IC50) was calculated by nonlinear regression (four parameters sigmoid fitted with variable slope, least squares fit, and no constraint) analysis using the GraphPad Prism 5 software (GraphPad Software, La Jolla, Calif.).
(§4) For CellTiter-Glo assay (suspension cells), 100 μl of CellTiter-Glo® Reagent was added to each well, and then the plates were incubated at room temperature for 10-20 minutes. The luminescent signal was measured using a Tecan Infinite M1000 multimode microplate reader (Tecan, Morrisville, N.C.). The readings were normalized to the DMSO-treated cells and the IC50 was calculated by nonlinear regression (four parameters sigmoid fitted with variable slope, least squares fit, and no constraint) analysis using the GraphPad Prism 5 software. See US 2014/0256706.
(§5) For a number of representative compounds in Table 5, their IC50 values in cell growth inhibition activity in the RS4;11 and MOLM-13 human leukemia cell lines and the MDA-MB-231 breast cancer cell line were evaluated using the WST-8 assay described in EXAMPLE 7, with the data shown in Table 7.
A general note: Tetrazolium dyes change colour on reduction, which living cells bring about.

The next experiment concerns MDA-MB-231. The experiment in a line: Cell growth inhibition, 4-day proliferation assay, MDA-MB-231. The note with it: Homo sapiens, MDA-MB-231; WST-8 assay, Table 7; read-out: Cell growth inhibition (IC50 (nM)) MDA-MB-231. In kind it is cell-based. How it is done: as §1, §2, §3, §4, §5

With `Cc1c(C#Cc2ccc(N)nc2)sc2c1C(c1ccc(Cl)cc1)=N[C@@H](CC(C)C)c1nnc(C)n1-2` [Compound 107, (S)-5-((4-(4-chlorophenyl)-6-isobutyl-3,9-dimethyl-6H-thieno[3,2-f][1,2,4]triazolo[4,3-a][1,4]diazepin-2-yl)ethynyl)pyridin-2-amine], the IC50 in the experiment with MOLM-13 was 363 nM; with MDA-MB-231, 320 ± 90 nM.
As to `Cc1c(C#Cc2cccnc2)sc2c1C(c1ccc(Cl)cc1)=N[C@@H](CC(C)C)c1nnc(C)n1-2` [Compound 106, (S)-4-(4-chlorophenyl)-6-isobutyl-3,9-dimethyl-2-(pyridin-3-ylethynyl)-6H-thieno[3,2-f][1,2,4]triazolo[4,3-a][1,4]diazepine], the IC50 in the experiment on MOLM-13 turned out to be 393 nM; with MDA-MB-231 it was 670 ± 100 nM.
On to `Cc1nnc(C[C@@H]2N=C(c3ccc(Cl)cc3)c3c(sc(C#Cc4ccc(F)cn4)c3C)-n3c(C)nnc32)o1` [Compound 140, (S)-2-((4-(4-chlorophenyl)-2-((5-fluoropyridin-2-yl)ethynyl)-3,9-dimethyl-6H-thieno[3,2-f][1,2,4]triazolo[4,3-a][1,4]diazepin-6-yl)methyl)-5-methyl-1,3,4-oxadiazole], for which the figures for the IC50 with MOLM-13 and in the experiment on MDA-MB-231 were 11.3 nM and 52.6 nM, respectively.
For `Cc1c(C#Cc2cncn2C)sc2c1C(c1ccc(Cl)cc1)=N[C@@H](CC(=O)N1CCN(C(=O)OC(C)(C)C)CC1)c1nnc(C)n1-2` [Compound 163, tert-butyl (S)-4-(2-(4-(4-chlorophenyl)-3,9-dimethyl-2-((1-methyl-1H-imidazol-5-yl)ethynyl)-6H-thieno[3,2-f][1,2,4]triazolo[4,3-a][1,4]diazepin-6-yl)acetyl)piperazine-1-carboxylate] the same measures were 33.1 nM and 362 nM.
With `Cc1c(C#Cc2cnn(C)c2)sc2c1C(c1ccc(Cl)cc1)=N[C@@H](CC(C)C)c1nnc(C)n1-2` [Compound 108, (S)-4-(4-chlorophenyl)-6-isobutyl-3,9-dimethyl-2-((1-methyl-1H-pyrazol-4-yl)ethynyl)-6H-thieno[3,2-f][1,2,4]triazolo[4,3-a][1,4]diazepine], the IC50 was found to be 232 nM in the experiment with MOLM-13 and 200 ± 30 nM in the experiment on MDA-MB-231.
As for `Cc1nnc(C[C@@H]2N=C(c3ccc(Cl)cc3)c3c(sc(C#Cc4ncccc4F)c3C)-n3c(C)nnc32)o1` [Compound 139, (S)-2-((4-(4-chlorophenyl)-2-((3-fluoropyridin-2-yl)ethynyl)-3,9-dimethyl-6H-thieno[3,2-f][1,2,4]triazolo[4,3-a][1,4]diazepin-6-yl)methyl)-5-methyl-1,3,4-oxadiazole], the IC50 with MOLM-13 is 4 to 10 nM; in the experiment with MDA-MB-231, 28.9 nM.
In the case of `Cc1nnc(C[C@@H]2N=C(c3ccc(Cl)cc3)c3c(sc(C#CC4(O)COC4)c3C)-n3c(C)nnc32)o1` [Compound 142, (S)-3-((4-(4-chlorophenyl)-3,9-dimethyl-6-((5-methyl-1,3,4-oxadiazol-2-yl)methyl)-6H-thieno[3,2-f][1,2,4]triazolo[4,3-a][1,4]diazepin-2-yl)ethynyl)oxetan-3-ol], the IC50 in the experiment on MOLM-13 turned out to be 95.9 nM; with MDA-MB-231, 785 nM.
In the case of `Cc1c(C#Cc2cncn2C)sc2c1C(c1ccc(Cl)cc1)=N[C@@H](CC(=O)N1CCNCC1)c1nnc(C)n1-2` [Compound 164], the IC50 with MOLM-13 amounted to 85.4 nM; in the experiment with MDA-MB-231 it was 304 nM.
`Cc1c(C#Cc2cnn(C)c2)sc2c1C(c1ccc(Cl)cc1)=N[C@@H](CC(=O)N1CCN(C)CC1)c1nnc(C)n1-2` [Compound 162, (S)-2-(4-(4-chlorophenyl)-3,9-dimethyl-2-((1-methyl-1H-pyrazol-4-yl)ethynyl)-6H-thieno[3,2-f][1,2,4]triazolo[4,3-a][1,4]diazepin-6-yl)-1-(4-methylpiperazin-1-yl)ethan-1-one]: the IC50 in the experiment on MOLM-13 was 19.2 nM; with MDA-MB-231, 109 ± 38 nM.

For the origin of these results see US11046709B2, “Fused 1,4-diazepines as BET bromodomain inhibitors” (THE REGENTS OF THE UNIVERSITY OF MICHIGAN, priority 2017, dated 2021).
